Results: patent publication US8481514B2, “Therapeutical uses of inecalcitol” (Hybrigenics SA, priority 2009, dated 2013)

Columns and labels:
[1] = 9-month toxicology study of once-a-day oral inecalcitol in monkeys (calcemia, toxicity); type: in vivo
Protocol: (§1) On FIG. 1, mean plasma concentrations of inecalcitol are plotted vs. time on the first day of the study and close to its end, at day 272. The mean toxicokinetic profiles are almost superimposable, with a mean peak of about 1.2 ng/ml achieved as soon as 15 minutes after oral intake, and a steady disappearance from circulation within 4 hours.

[2] = 9-month toxicokinetic study of once-a-day oral inecalcitol in monkeys (plasma concentrations); type: in vivo; conditions: male mature monkeys, day 1 and day 272
Protocol: FIG. 1 illustrates the mean plasma concentrations vs time obtained during a 9-month toxicology study on once-a-day oral inecalcitol performed in male mature monkeys.
as §1

[3] = 2-week toxicology study of twice-a-day oral inecalcitol in monkeys (calcemia, toxicity); type: in vivo, cynomolgus monkeys; conditions: for plasma calcium level (mean±s.e.m.): same 4 animals
Protocol: (§2) On FIG. 2, mean plasma concentrations of inecalcitol are plotted vs. time on the first day of treatment with two successive administrations of inecalcitol around 8 AM and 7 PM, i.e. about 11 hours apart. […] In both instances, inecalcitol levels returned to basal levels within 4 hours. In the table below, plasma calcium levels (in mmoles/L, mean±s.e.m.) were monitored in the same 4 animals for two weeks before and for two weeks during the treatment period.

[4] = 2-week toxicokinetic study of twice-a-day oral inecalcitol in monkeys (plasma concentrations); type: in vivo, cynomolgus monkeys; conditions: first day of treatment
Protocol: FIG. 2 illustrates the mean plasma concentrations vs time obtained during a 2-week toxicology study on twice-a-day oral inecalcitol performed in male juvenile monkeys.
as §2

[5] = Dose finding and clinical tolerance study of inecalcitol with docetaxel-prednisone in HRPC patients (safety); type: in vivo, human; conditions: for adverse events related to the drug: attribution of the AEs seen under the combination
Protocol: Escalating oral dosages of inecalcitol were combined to chemotherapy in naive HRPC patients. Safety was evaluated in groups of 3-6 patients receiving inecalcitol every other day (qod) or daily (qd) on a 21-day cycle in combination with intravenous docetaxel (75 mg/m2 q3w) and oral prednisone (5 mg bid). Patients (pts) received up to six cycles unless unacceptable toxicity or disease progression. Primary endpoint was dose limiting toxicity (DLT) defined as grade 3 hypercalcemia within the first cycle. Calcemia, creatininemia and complete blood counts were assessed weekly; biochemistry, electrocardiogram and prostate specific antigen (PSA) every 3 weeks. Efficacy endpoint was PSA response defined as ≧30% decline within 3 months.
(§3) Inecalcitol was given to patients in soft gelatine capsules of different sizes, shapes and strengths depending on the dose level studied: one, two or four 40 μg capsules (size 11, oblong shape) for administration of 40, 80 or 160 μg/day, respectively; three or six 100 μg capsules (size 4, round shape) for administration of 300 or 600 μg/day, respectively; five 200 μg capsules (size 7.5, oval shape) for administration of 1,000 μg/day; five 400 μg capsules (size 14, oblong shape) for administration of 2 mg/day, and four 1 mg capsules (size 14, oblong shape) for administration of 4 mg/day. In all the capsules, inecalcitol was present in the fill content as a solution in medium chain triglycerides from fractionated coconut oil at different concentrations depending on the capsule strengths.

[6] = Pharmacokinetics of oral inecalcitol in HRPC patients (LC/MS/MS of plasma); type: in vivo; conditions: human patients
Protocol: as §3
Inecalcitol was assayed as unchanged circulating compound in the plasma by liquid chromatography followed by tandem mass spectrometry (LC/MS/MS). […] At 600 μg and 1000 μg, mean peak values reached around 35 and 45 pg/ml (0.035 and 0.045 ng/ml) at 90 and 45 minutes, respectively.

[7] = Eelen et al. 2005; Verlinden et al. 2001; cited from earlier work
[8] = Eelen et al. 2005; Verlinden et al. 2001; cited from earlier work; remark: listed apart in the source
[9] = system: human breast cancer cells; conditions: in vitro and in vivo; Verlinden et al. 2000; cited from earlier work
[10] = male mature cynomolgus monkeys, daily oral, 9 months, up to highest tested dose 1.8 mg per day per monkey
[11] = male juvenile cynomolgus monkeys, twice daily oral, 2×1.6 mg each day, 2 weeks
[12] = 50 pts treated, inecalcitol with docetaxel and prednisone
[13] = HRPC patients, oral 300 μg, 600 μg, 1000 μg (qod,qd), 2 mg (qd) or 4 mg (qd)

Q: Which maximal tolerated dose ([1]; 9-month daily oral, highest tested dose 1.8 mg per day per monkey) does the source give for C[C@H](CC#CC(C)(C)O)[C@H]1CC[C@@H]2/C(=C/C=C3C[C@@H](O)C[C@H](O)C3)CCC[C@@]21C [inecalcitol, 19-nor-9,10-seco-14βH-cholesta-5(Z),7(E)-dien-23-ino-1α,3β,25-triol-23-yne] here?
A: Its maximal tolerated dose is “has not been reached”.

Q: And the “difference in plasma calcium levels between control and treated monkeys” value ([1]; different time points during the 9-month study)?
A: Its value is “did not show any difference”.

Q: What about the hypercalcemia [1, 10] of the same compound?
A: Its hypercalcemia is “no hypercalcemia”.

Q: And the toxic effects [1, 10]?
A: Its toxic effects is “no toxic effects”.

Q: What about the “plasma calcium level (mean±s.e.m.)” value ([1]; treated monkeys n = 6, Day 85) of the same compound?
A: Its value is 2.53 ± 0.03 mmol/L.

Q: What about the “plasma calcium level (mean±s.e.m.)” value ([1]; treated monkeys n = 6, Day 175) of the same compound?
A: The value was 2.49 ± 0.05 mmol/L.

Q: And the “plasma calcium level (mean±s.e.m.)” value ([1]; treated monkeys n = 6, Day 268)?
A: The value was 2.51 ± 0.05 mmol/L.

Q: What about the “plasma calcium level (mean±s.e.m.)” value ([1]; treated monkeys n = 6, Day −12 (before treatment)) of the same compound?
A: The value was 2.54 ± 0.11 mmol/L.

Q: And the “mean peak plasma concentration” value ([2]; 1.8 mg per day)?
A: The value was “about 1.2 ng/ml”.

Q: What about the disappearance from circulation [2] of the same compound?
A: Its disappearance from circulation is no more than 4 h.

Q: What about the “time of mean peak after oral intake” value [2] of the same compound?
A: The value was 15 min.

Q: What about the hypercalcemia [3, 11] of the same compound?
A: The hypercalcemia was “no hypercalcemia”.

Q: And the toxic effects [3, 11]?
A: Its toxic effects is “no toxic effects”.

Q: And the “plasma calcium level (mean±s.e.m.)” value ([3]; Day 7 of treatment, 2×1.6 mg each day)?
A: Its value is 2.68 ± 0.15 mmol/L.

Q: And the “plasma calcium level (mean±s.e.m.)” value ([3]; Day 13 of treatment, 2×1.6 mg each day)?
A: Its value is 2.76 ± 0.12 mmol/L.

Q: What about the “plasma calcium level (mean±s.e.m.)” value ([3]; Day −6 (before treatment)) of the same compound?
A: The value was 2.61 ± 0.06 mmol/L.

Q: What about the “plasma calcium level (mean±s.e.m.)” value ([3]; Day −13 (before treatment)) of the same compound?
A: The value was 2.66 ± 0.088 mmol/L.

Q: And the “changes in plasma calcium” value ([3]; two weeks before vs two weeks during treatment)?
A: Its value is “No significant changes”.

Q: What about the “return of inecalcitol levels to basal levels” value ([4]; after each of the two administrations) of the same compound?
A: Its value is no more than 4 h.

Q: What about the “peak mean plasma concentration, second administration” value ([4]; male juvenile monkeys, 1.6 mg oral around 7 PM) of the same compound?
A: The value was 2.50 ng/mL.

Q: What about the “peak mean plasma concentration, first administration” value ([4]; male juvenile monkeys, 1.6 mg oral around 8 AM) of the same compound?
A: The value was 2.75 ng/mL.

Q: What about the “G1-2 adverse event: asthenia” value [5, 12] of the same compound?
A: The value was 22 pts.

Q: And the “G1-2 adverse event: constipation” value [5, 12]?
A: Its value is 15 pts.

Q: What about the “G1-2 adverse event: diarrhea” value [5, 12] of the same compound?
A: Its value is 13 pts.

Q: What about the “G3-4 AE: arrhythmia” value [5, 12] of the same compound?
A: Its value is 2 pts.

Q: And the “G3-4 AE: asthenia” value [5, 12]?
A: Its value is 3 pts.

Q: And the “G3-4 AE: diarrhea” value [5, 12]?
A: Its value is 1 pt.

Q: And the “G3-4 AE: general health deterioration” value [5, 12]?
A: The value was 3 pts.

Q: And the “G3-4 AE: lymphopenia” value [5, 12]?
A: Its value is 12 pts.

Q: And the “G3-4 AE: neutropenia” value [5, 12]?
A: Its value is 36 pts.

Q: What about the increased calcemia ([5]; HRPC patients, oral 40 μg to 4 mg qod or qd, with docetaxel and prednisone, 50 pts treated) of the same compound?
A: Its increased calcemia is “No increased calcemia”.

Q: And the hypercalcemia [5, 13]?
A: Its hypercalcemia is “did not induce any hypercalcemia”.

Q: What about the toxic effect [5, 13] of the same compound?
A: The toxic effect was “did not induce any hypercalcemia or any toxic effect”.

Q: What about the “adverse events related to the drug” value [5] of the same compound?
A: The value was “none”.

Q: What about the peak plasma values ([6]; oral 300 μg, lower limit of quantitation 10 pg/ml) of the same compound?
A: Its peak plasma values is “barely detectable above the lower limit of quantitation”.

Q: And the “time of mean peak value” ([6]; oral 600 μg)?
A: Its value is 90 min.

Q: And the “time of mean peak value” ([6]; oral 1000 μg)?
A: Its value is 45 min.

Q: What about the “time of mean peak value” ([6]; oral 2 mg) of the same compound?
A: The value was 90 min.

Q: What about the “time of mean peak value” ([6]; oral 4 mg) of the same compound?
A: Its value is 45 min.

Q: What about the half-life ([6]; male, plasma, four mean profiles between 600 μg and 4 mg oral, read-out: approximate half-life) of the same compound?
A: Its half-life is 1 to 1.5 h.

Q: And the “antiproliferative effects compared with calcitriol” value [7]?
A: Its value is “enhanced”.

Q: What about the “calcemic effects compared with calcitriol” value [8] of the same compound?
A: Its value is “markedly lower”.

Q: What about the “activity on growth of human breast cancer cells” value [9] of the same compound?
A: The value was “inhibiting the growth”.

Q: With CC(=O)O[C@@]12CO[C@@H]1C[C@H](O)[C@@]1(C)C(=O)[C@H](O)C3=C(C)[C@@H](OC(=O)[C@H](O)[C@@H](NC(=O)OC(C)(C)C)c4ccccc4)C[C@@](O)([C@@H](OC(=O)c4ccccc4)[C@H]21)C3(C)C [docetaxel, reference compound] as the compound, how does the “adverse events related to the drug” value [5] read?
A: The value was “All these AEs”.
